How the values were obtained:
Assay type in all cases: cell-based
Conditions in all cases: 5-FU 1.0 mg/ml
[1] = system: human tumor xenograft MAXF 1384 (Breast); test: clonogenic assay (tumor colony assay)
Method: (§1) In the clonogenic assay (=tumor colony assay, TCA), inhibition of colony formation of tumor stem cells growing in soft agar is examined. Tumor stem cells, which are responsible for growth, the metastatic and infiltrative potential of a tumor, are prepared directly from human tumor xenografts growing in nude mice.
(§2) Cytostatic was tested at 6 concentrations. The highest concentration tested was 0.004%, as shown below, which was the maximum allowed concentration of the vehicle in the test set as 100% of Cytostatic. IMDM supplemented with 10% v/v saline solution was also used as a control vehicle.
(§3) Solid human tumor xenografts growing subcutaneously in serial passages in thymus aplastic nude mice (NMRI nu/nu strain,) were removed under sterile conditions, mechanically disaggregated and subsequently incubated with an enzyme cocktail consisting of collagenase type IV (41 U/ml) (Sigma), DNase I (125 U/ml) (Roche), hyaluronidase type III (100 U/ml) (Sigma) and dispase II (1.0 U/ml) (Roche) in RPMI 1640-Medium (Life Technologies) at 37° C. for 45 minutes. Cells were passed through sieves of 200 μm and 50 μm mesh size and washed twice with sterile PBS-buffer. The percentage of viable cells was determined in a Neubauer-hemocytometer using trypan blue exclusion.
(§4) The clonogenic assay was performed in a 24-well format according to a modified two-layer soft agar assay introduced by Hamburger & Salmon. The bottom layer consisted of 0.2 ml/well IMDM (Life Technologies) (supplemented with 20% (v/v) fetal calf serum (Sigma), 0.01% (w/v) gentamicin (Life Technologies) and 0.75% (w/v) agar). 2×10^4 to 4×10^4 cells were added to 0.2 ml of the same culture medium supplemented with 0.4% (w/v) agar and plated in 24-multiwell dishes onto the bottom layer. The test compound was applied by continuous exposure (drug overlay) in 0.2 ml culture medium. Every dish included six untreated control wells and drug-treated groups in triplicate at 6 concentrations. Cultures were incubated at 37° C. and 7.5% CO2 in a humidified atmosphere for 6-18 days and monitored closely for colony growth using an inverted microscope. Within this period, in vitro tumor growth led to the formation of colonies with a diameter of >50 μm. At the time of maximum colony formation, counts were performed with an automatic image analysis system (OMNICON 3600, Biosys GmbH). 24 hours prior to evaluation, vital colonies were stained with a sterile aqueous solution of 2-(4-iodophenyl)-3-(4-nitrophenyl)-5-phenyltetrazolium chloride (1 mg/ml, 100 μl/well) (Sigma).
(§5) Drug effects were expressed by the percentage of colony formation, obtained by comparison of the mean number of colonies in the treated wells with the mean colony count of the untreated controls (relative colony count expressed by the test-versus-control value, T/C-value [%]):
(§6) IC50- and IC70-values, being the drug concentrations necessary to inhibit colony formation by 50% (T/C=50%) and 70% (T/C=30%), respectively, were determined by plotting compound concentration versus relative colony count. Mean IC50- and IC70-values were calculated according to the formula

[2] = system: human tumor xenograft MAXF 401 (Breast); test: clonogenic assay (tumor colony assay)
Method: as §1, §2, §3, §4, §5, §6

[3] = system: human tumor xenograft OVXF 550 (Ovary); test: clonogenic assay (tumor colony assay)
Method: as §1, §2, §3, §4, §5, §6

[4] = system: human tumor xenograft CXF 1103 (Colon); test: clonogenic assay (tumor colony assay)
Method: as §1, §2, §3, §4, §5, §6

[5] = system: human tumor xenograft RXF 944LX (Kidney); test: clonogenic assay (tumor colony assay)
Method: as §1, §2, §3, §4, §5, §6

[6] = system: human tumor xenograft BXF 1218 (Bladder); test: clonogenic assay (tumor colony assay)
Method: as §1, §2, §3, §4, §5, §6

[7] = system: human tumor xenograft RXF 631 (Kidney); test: clonogenic assay (tumor colony assay)
Method: as §1, §2, §3, §4, §5, §6

[8] = system: human tumor xenograft LXFL 529 (Lung, NSC); test: clonogenic assay (tumor colony assay)
Method: as §1, §2, §3, §4, §5, §6

[9] = system: human tumor xenograft MEXF 989 (Melanoma); test: clonogenic assay (tumor colony assay)
Method: as §1, §2, §3, §4, §5, §6

[10] = system: human tumor xenograft MAXF 1322 (Breast); test: clonogenic assay (tumor colony assay)
Method: as §1, §2, §3, §4, §5, §6

[11] = system: human tumor xenograft LIXF 575 (Liver); test: clonogenic assay (tumor colony assay)
Method: as §1, §2, §3, §4, §5, §6

[12] = system: human tumor xenograft MEXF 514 (Melanoma); test: clonogenic assay (tumor colony assay)
Method: as §1, §2, §3, §4, §5, §6

[13] = system: human tumor xenograft PXF 1118 (Pleuramesothelioma); test: clonogenic assay (tumor colony assay)
Method: as §1, §2, §3, §4, §5, §6

[14] = system: human tumor xenograft HNXF 536 (Head & neck); test: clonogenic assay (tumor colony assay)
Method: as §1, §2, §3, §4, §5, §6

[15] = system: human tumor xenograft MEXF 1539 (Melanoma); test: clonogenic assay (tumor colony assay)
Method: as §1, §2, §3, §4, §5, §6

[16] = system: human tumor xenograft LXFS 650 (Lung, SC); test: clonogenic assay (tumor colony assay)
Method: as §1, §2, §3, §4, §5, §6

[17] = system: human tumor xenograft OVXF 899 (Ovary); test: clonogenic assay (tumor colony assay)
Method: as §1, §2, §3, §4, §5, §6

[18] = system: human tumor xenograft LXFS 615 (Lung, SC); test: clonogenic assay (tumor colony assay)
Method: as §1, §2, §3, §4, §5, §6

[19] = system: human tumor xenograft LXFA 526 (Lung, NSC); test: clonogenic assay (tumor colony assay)
Method: as §1, §2, §3, §4, §5, §6

[20] = system: human tumor xenograft CXF 280 (Colon); test: clonogenic assay (tumor colony assay)
Method: as §1, §2, §3, §4, §5, §6

[21] = system: human tumor xenograft PAXF 736 (Pancreas); test: clonogenic assay (tumor colony assay)
Method: as §1, §2, §3, §4, §5, §6

[22] = system: human tumor xenograft PRXF DU145 (Prostate); test: clonogenic assay (tumor colony assay)
Method: as §1, §2, §3, §4, §5, §6

[23] = system: human tumor xenograft LXFA 289 (Lung, NSC); test: clonogenic assay (tumor colony assay)
Method: as §1, §2, §3, §4, §5, §6

[24] = system: human tumor xenograft PRXF MRIH1579 (Prostate); test: clonogenic assay (tumor colony assay)
Method: as §1, §2, §3, §4, §5, §6

[25] = system: human tumor xenograft GXF 1172 (Stomach); test: clonogenic assay (tumor colony assay)
Method: as §1, §2, §3, §4, §5, §6

[26] = system: human tumor xenograft LXFL 1647 (Lung, NSC); test: clonogenic assay (tumor colony assay)
Method: as §1, §2, §3, §4, §5, §6

[27] = system: human tumor xenograft SXF 627 (Sarcoma); test: clonogenic assay (tumor colony assay)
Method: as §1, §2, §3, §4, §5, §6

[28] = system: 27 human tumor xenografts; test: clonogenic assay, whole test panel
Method: The antitumor efficacy of cytostatic composition as described above was evaluated in 27 human tumor xenografts in vitro using a clonogenic assay. The tumor test panel comprised 1 to 4 models of 15 different human tumor types, which were bladder cancer, colon, gastric, head and neck, liver, non small cell lung (adeno and large cell), small cell lung, mammary, ovary, pancreatic, prostate and renal cancer as well as melanoma, pleuramesothelioma, and sarcoma. The cytostatic composition was studied at 6 concentrations ranging from 0.001% to 100.0%. Antitumor effects were recorded as inhibition of colony formation in relation to untreated controls (T/C-values).
In the clonogenic assay (=tumor colony assay, TCA), inhibition of colony formation of tumor stem cells growing in soft agar is examined. […]
The clonogenic assay was performed in a 24-well format according to a modified two-layer soft agar assay introduced by Hamburger & Salmon. […] Cultures were incubated at 37° C. and 7.5% CO2 in a humidified atmosphere for 6-18 days and monitored closely for colony growth using an inverted microscope. […]
with x the specific tumor model, and n the total number of tumor models studied. If an IC50- or IC70-value could not be determined within the examined dose range (because a compound was either too active or lacked activity), the lowest or highest concentration studied was used for the calculation. […]

## O=c1[nH]cc(F)c(=O)[nH]1 [5-FU, 5-fluorouracil]
[1]
  5-FU control, T/C [%]: 4%
  5-FU control, T/C [%] class: +++ (+++ (T/C ≦ 10))
[2]
  5-FU control, T/C [%]: 4%
  5-FU control, T/C [%] class: +++ (+++ (T/C ≦ 10))
[3]
  5-FU control, T/C [%]: 33%
  5-FU control, T/C [%] class: + (+ (30 ≦ T/C ≦ 50))
[4]
  5-FU control, T/C [%]: 10%
  5-FU control, T/C [%] class: +++ (+++ (T/C ≦ 10))
[5]
  5-FU control, T/C [%]: 1%
  5-FU control, T/C [%] class: +++ (+++ (T/C ≦ 10))
[6]
  5-FU control, T/C [%]: 2%
  5-FU control, T/C [%] class: +++ (+++ (T/C ≦ 10))
[7]
  5-FU control, T/C [%]: 4%
  5-FU control, T/C [%] class: +++ (+++ (T/C ≦ 10))
[8]
  5-FU control, T/C [%]: 0%
  5-FU control, T/C [%] class: +++ (+++ (T/C ≦ 10))
[9]
  5-FU control, T/C [%]: 0%
  5-FU control, T/C [%] class: +++ (+++ (T/C ≦ 10))
[10]
  5-FU control, T/C [%]: 0%
  5-FU control, T/C [%] class: +++ (+++ (T/C ≦ 10))
[11]
  5-FU control, T/C [%]: 4%
  5-FU control, T/C [%] class: +++ (+++ (T/C ≦ 10))
[12]
  5-FU control, T/C [%]: 4%
  5-FU control, T/C [%] class: +++ (+++ (T/C ≦ 10))
[13]
  5-FU control, T/C [%]: 2%
  5-FU control, T/C [%] class: +++ (+++ (T/C ≦ 10))
[14]
  5-FU control, T/C [%]: 9%
  5-FU control, T/C [%] class: +++ (+++ (T/C ≦ 10))
[15]
  5-FU control, T/C [%]: 0%
  5-FU control, T/C [%] class: +++ (+++ (T/C ≦ 10))
[16]
  5-FU control, T/C [%]: 0%
  5-FU control, T/C [%] class: +++ (+++ (T/C ≦ 10))
[17]
  5-FU control, T/C [%]: 31%
  5-FU control, T/C [%] class: + (+ (30 ≦ T/C ≦ 50))
[18]
  5-FU control, T/C [%]: 14%
  5-FU control, T/C [%] class: ++ (++ (10 < T/C < 30))
[19]
  5-FU control, T/C [%]: 2%
  5-FU control, T/C [%] class: +++ (+++ (T/C ≦ 10))
[20]
  5-FU control, T/C [%]: 21%
  5-FU control, T/C [%] class: ++ (++ (10 < T/C < 30))
[21]
  5-FU control, T/C [%]: 5%
  5-FU control, T/C [%] class: +++ (+++ (T/C ≦ 10))
[22]
  5-FU control, T/C [%]: 1%
  5-FU control, T/C [%] class: +++ (+++ (T/C ≦ 10))
[23]
  5-FU control, T/C [%]: 12%
  5-FU control, T/C [%] class: ++ (++ (10 < T/C < 30))
[24]
  5-FU control, T/C [%]: 7%
  5-FU control, T/C [%] class: +++ (+++ (T/C ≦ 10))
[25]
  5-FU control, T/C [%]: 15%
  5-FU control, T/C [%] class: ++ (++ (10 < T/C < 30))
[26]
  5-FU control, T/C [%]: 5%
  5-FU control, T/C [%] class: +++ (+++ (T/C ≦ 10))
[27]
  5-FU control, T/C [%]: 2%
  5-FU control, T/C [%] class: +++ (+++ (T/C ≦ 10))
[28]
  antitumor activity of positive control of growth inhibition: good antitumor activity

Source: patent publication US20090203800A1, “Cytostatic Composition” (priority 2008, published 2009)
